Data on 1 sequence can be found in PMC12020424, “Identification and Validation of Cyclic Peptides with Mucin-Selective, Location-Specific Binding in the Gastrointestinal Tract” (ACS Nano, 2025).

Bridge positions count the residues as written; N and C are the ends. Ends that are not written are not given here.

The experiment has as its system MUC5AC-containing stomach tissue. The experiment can be described thus: Ex vivo fluorescent binding to stomach tissue. Also noted: species or system porcine. To be noted: MUC5AC-selective peptides to stomach. An excerpt:
After identifying the peptide hits for each mucin, we tested their binding in an ex vivo setting (Figure S1), evaluating their interaction with mucin-containing porcine tissue and semiquantitatively representing it through fluorescent imaging (Figure 3a). The cyclic peptides were synthesized and conjugated to a fluorophore, Alexa Fluor 647 (AF647), at the N-terminus to allow fluorescent imaging to be used to semiquantitatively measure the peptides’ ex vivo tissue binding, compared to free AF647 and AF647 conjugated to wheat germ agglutinin (WGA), a known lectin for glycoproteins.[40] […] Porcine GI tissue was used due to its similarity in mucin expression compared to human GI tissue and its capacity to source large surface areas of tissue for experiments.[41],[42] Representative IVIS images are shown in Figure 3b-e, where the first four columns represent the four identified peptides (M2.1–M2.4 in Figure 3b,c, M5.1–M5.4 in Figure 3d,e), the fifth column represents WGA-AF647, and the sixth column represents AF647. The “score” results for the peptide ligands are presented in Figure 3f,g for the mucins of interest, with Tables S2–S5 and Figure S3 detailing results for the other tissues (the equation for calculating the “score” is found in the Materials and Methodssection). […] We also examined selectivity by incubating peptides on nontarget tissues. Figure 3h,i depicts the “selectivity” results for the MUC2-selective and MUC5AC-selective peptides, respectively. Selectivity was calculated by determining the ratio of the “score” for a particular mucin to the sum of the “scores” for all mucins (see the Materials and Methods section for the equation used).
The top-performing hits from phage display were tested on ex vivo segments of porcine mucin-containing tissues (jejunal, stomach, and esophageal tissues) obtained from local abattoirs or laboratory-maintained pigs. Tissue was used either immediately after acquisition or after storage at −80 °C; tissue was used at most 1 week after acquisition and storage at −80 °C. After acquisition and equilibration to room temperature, the tissue was washed twice with 25 mL (each) of cold 1× PBS to remove undigested food and other debris. After washing and cleaning, the tissue was mounted between two magnetic plates with holes corresponding to a 48-well plate, as previously described,[72] such that the luminal side of the tissue was facing up (Figure S1). After the tissue was mounted, the amount of peptide/protein corresponding to 40 μg of AF647 was suspended in 200 μL of 1× PBS and added to the wells created by the magnetic plates. This was done 3× for each formulation to perform the experiment in triplicate. In addition, plain 1× PBS was added to one well to serve as the background measurement. […] After washing was complete, fluorescence imaging was performed using an IVIS Spectrum fluorescent imaging system (PerkinElmer), with an automatically calculated exposure time (usually ∼1 s), a 20 cm × 20 cm field of view, and an excitation/emission of 640/680 nm, respectively. The imaging results were analyzed using Living Image software to calculate the total fluorescence intensity for each well, and the results for each hit or control were averaged across different wells. […]
To better account for tissue-to-tissue variability, the results for each trial were reported as scores rather than using the raw fluorescence intensity. […]

Take “CTDKASSSC (disulfide 1-9 (inferred)) [Peptide M5.1, CX7C cyclic peptide hit for MUC5AC]”: the “Overall nanoparticle “score”” value (scaled between free AF647 (0) and WGA-AF647 (1), mean across trials n = 3) was found to be 0.800. The Selectivity (score for MUC5AC tissue / sum of scores for all mucins, n = 3) is 0.370.
